Test results taken from patent publication US20110257131A1, “PHENYLALKYL-IMIDAZOLE-BISPHOSPHONATE COMPOUNDS” (NOVARTIS AG, priority 2008, published 2011).

What follows are molecules tested against T1, Human farnesyl pyrophosphate synthase (FPPS, Swissprot ID: P14324) (Homo sapiens, UniProt P14324) (assay: FPPS assay (label-free LC/MS/MS quantification of farnesyl pyrophosphate)). Details: cell-free in vitro FPPS assay; 5 min pre-incubation with enzyme, GPP/IPP 5 μM each, 30 min reaction.
T1 construct: made in house
T1 sequence (P14324 67-419 limits assumed): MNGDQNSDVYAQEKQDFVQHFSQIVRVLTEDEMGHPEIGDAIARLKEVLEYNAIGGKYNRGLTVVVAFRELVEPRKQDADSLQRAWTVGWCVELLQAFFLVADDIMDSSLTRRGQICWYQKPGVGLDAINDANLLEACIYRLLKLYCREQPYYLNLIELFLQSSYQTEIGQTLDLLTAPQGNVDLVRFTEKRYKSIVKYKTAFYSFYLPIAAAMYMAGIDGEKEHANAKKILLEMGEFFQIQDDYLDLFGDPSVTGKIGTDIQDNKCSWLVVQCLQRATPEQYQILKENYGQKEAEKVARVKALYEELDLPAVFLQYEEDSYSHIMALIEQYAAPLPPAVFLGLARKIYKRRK
Assay type: biochemical
Protocol: For example, in a cell-free in vitro assay the superiority of compounds of the formula I over compounds already known can be shown. Briefly, the reaction proceeds in the presence of enzyme and an inhibitor of the formula I, and the reaction product (farneysyl pyrophosphate) is quantified by LC/MS/MS.
In detail, the inhibitor and enzyme are pre-incubated before adding the substrates
The assay is a label-free assay for farnesyl pyrophosphate synthase (FPPS) based on LC/MS/MS. This method quantifies in-vitro untagged farnesyl pyrophosphate (FPP) and is suitable for high throughput screening (HTS) to find inhibitors of FPPS and for the determinations of IC50 values of candidate compounds. The analysis time is 2.0 minutes with a total cycle time of 2.5 minutes. The analysis can be formatted for 384-well plates resulting in an analysis time of 16 hours per plate.
Pentanol, methanol, and isopropyl alcohol are HPLC grade and obtained from Fisher Scientific, DMIPA is from Sigma-Aldrich. Water is from an in-house Milli-Q system. The assay buffer (20 mM HEPES, 5 mM MgCl2 and 1 mM CaCl2) is prepared by dilution from […] stock solutions obtained from Sigma-Aldrich. Standards of geranyl pyrophosphate (GPP), […], and farnesyl S-thiolopyrophosphate (FSPP) are from Echelon Biosciences (Salt Lake City, Utah). Human farnesyl pyrophosphate synthase (FPPS, Swissprot ID: P14324) (13.8 mg/mL) is prepared as described by Rondeau at al (ChemMedChem 2006, 1, 267-273.
LC/MS/MS analyses are performed on a Micromass Quattro Micro tandem quadrupole mass analyser (Waters Corp, Milford, Mass., USA) interfaced to an Agilent 1100 binary LC pump Agilent Technologies, Inc., Santa Clara, Calif., USA). Injection is performed with a CTC Analytics autosampler (Leap Technologies Inc., Carrboro, N.C., USA) using an injection loop size of 2.5 μL. Chromatography is performed on a Waters 2.1×20 mm Xterra MS C18 5 μm guard column (P/N186000652) (Waters Corp., Milford, Mass., USA) contained in a guard column holder (P/N 186000262) using 0.1% DMIPA/methanol as solvent A and 0.1% DMIPA/water as solvent B (DMIPA is dimethylisopropylamine). The gradient is 5% A from 0.00 to 0.30 min, 50% A at 0.31 min., 80% A at 1.00 min., and 5% A from 1.01 to 2.00 min. The flow rate is 0.3 mL/min, and the flow is diverted to waste from 0.00 to 0.50 min and again from 1.20 to 2.00 min.
The Multiple Reaction Monitoring (MRM) transitions monitored are 381->79—for FPP and 397->159—for FSPP at a collision energy of 22 eV and a collision cell pressure of 2.1×10-3 mbar of Ar. The dwell time per transition is 400 msec with a span of 0.4 Da. The inter-channel delay and interscan delay are both 0.02 sec. Other mass spectrometric operating parameters are: capillary, 2.0 kV; cone, 35 V; extractor, 2.0 V, source temp., 100 ° C.; desolvation gas temp., 250° C.; desolvation gas flow, 650 L/hr; cone gas flow, 25 L/hr; multiplier, 650 V.
The total cycle time per sample is 2.5 minutes. Since the analysis is formatted for 384-well plates, a plate is analyzed in 16 hours. The chromatograms are processed using Quanlynx software, which divides the area of individual FPP peaks by the area of the FSPP peaks (internal standard). The resulting values are reported as the relative response for the corresponding sample well.
Into each well of a 384-well plate, 5 μL of compound in 20% DMSO/water is placed. […]

SMILES | IC50 [nM]
O=P(O)(O)C(O)(Cn1cnc(Cc2ccccc2)c1)P(=O)(O)O [Example 2, [2-(4-Benzyl-imidazol-1-yl)-1-hydroxy-1-phosphono-ethyl]-phosphonic acid] | 1.4
O=P(O)(O)C(O)(Cn1cnc(CCc2ccccc2)c1)P(=O)(O)O [Example 3, [1-Hydroxy-2-(4-phenethyl-imidazol-1-yl)-1-phosphono-ethyl]-phosphonic acid] | 1.9
O=P(O)(O)C(O)(Cn1cncc1CCCc1ccccc1)P(=O)(O)O [Example 1, {1-Hydroxy-2-[5-(3-phenyl-propyl)-imidazol-1-yl]-1-phosphono-ethyl}-phosphonic acid] | 1.9
O=P(O)(O)C(O)(Cn1cncc1CCc1ccccc1)P(=O)(O)O [Example 4, [1-Hydroxy-2-(5-phenethyl-imidazol-1-yl)-1-phosphono-ethyl]-phosphonic acid] | 6.7
Cc1ccc(CCCc2cncn2CC(O)(P(=O)(O)O)P(=O)(O)O)cc1 [Example 5, {1-Hydroxy-1-phosphono-2-[5-(3-p-tolyl-propyl)-imidazol-1-yl]-ethyl}-phosphonic acid] | 3.5
